How the values were obtained:
[1] = system: GIRK; conditions: cited from earlier work
[2] = target: T1, GIRK1/GIRK4 (Homo sapiens, UniProt P48544+P48549); test: GIRK1/4 thallium flux assay in stably transfected HEK-293 cells; assay type: cell-based
T1 sequence (P48549 1-501): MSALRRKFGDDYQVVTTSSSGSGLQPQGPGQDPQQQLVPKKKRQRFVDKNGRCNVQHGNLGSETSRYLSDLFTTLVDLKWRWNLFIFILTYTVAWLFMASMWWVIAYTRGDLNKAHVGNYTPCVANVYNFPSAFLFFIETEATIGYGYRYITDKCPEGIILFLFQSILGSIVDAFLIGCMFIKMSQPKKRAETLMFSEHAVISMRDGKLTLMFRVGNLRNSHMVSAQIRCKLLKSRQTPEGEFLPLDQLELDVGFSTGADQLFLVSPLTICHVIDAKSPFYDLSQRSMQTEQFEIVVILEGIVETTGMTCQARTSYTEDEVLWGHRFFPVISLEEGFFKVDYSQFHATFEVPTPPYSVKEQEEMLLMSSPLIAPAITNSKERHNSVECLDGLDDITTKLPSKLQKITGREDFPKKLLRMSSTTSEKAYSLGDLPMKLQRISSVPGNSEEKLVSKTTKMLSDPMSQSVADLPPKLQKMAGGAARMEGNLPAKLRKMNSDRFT
T1 sequence (P48544 1-419): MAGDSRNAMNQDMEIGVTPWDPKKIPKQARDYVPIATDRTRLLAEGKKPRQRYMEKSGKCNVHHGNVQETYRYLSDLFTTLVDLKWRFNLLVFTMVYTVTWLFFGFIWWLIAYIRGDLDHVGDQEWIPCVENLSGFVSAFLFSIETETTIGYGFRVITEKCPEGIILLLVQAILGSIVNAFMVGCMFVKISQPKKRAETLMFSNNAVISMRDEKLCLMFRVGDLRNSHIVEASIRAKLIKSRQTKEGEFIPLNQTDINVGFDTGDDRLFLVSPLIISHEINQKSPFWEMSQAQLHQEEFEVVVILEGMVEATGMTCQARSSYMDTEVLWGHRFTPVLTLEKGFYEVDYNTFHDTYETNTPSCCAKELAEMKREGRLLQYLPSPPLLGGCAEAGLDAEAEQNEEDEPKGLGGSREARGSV

[3] = system: GIRK1/2; conditions: cited from earlier work
[4] = system: other K+ channels; conditions: cited from earlier work
[5] = system: GIRK2/3; conditions: cited from earlier work
[6] = target: T1, GIRK1/GIRK4; conditions: GIRK1/2 activator vs GIRK1/4; cited from earlier work
[7] = target: T2, GIRK1/GIRK2 (Homo sapiens, UniProt P48051+P48549); test: GIRK1/2 thallium flux assay in stably transfected HEK-293 cells; assay type: cell-based
T2 sequence (P48549 1-501): T1 sequence (P48549 1-501)
T2 sequence (P48051 1-423): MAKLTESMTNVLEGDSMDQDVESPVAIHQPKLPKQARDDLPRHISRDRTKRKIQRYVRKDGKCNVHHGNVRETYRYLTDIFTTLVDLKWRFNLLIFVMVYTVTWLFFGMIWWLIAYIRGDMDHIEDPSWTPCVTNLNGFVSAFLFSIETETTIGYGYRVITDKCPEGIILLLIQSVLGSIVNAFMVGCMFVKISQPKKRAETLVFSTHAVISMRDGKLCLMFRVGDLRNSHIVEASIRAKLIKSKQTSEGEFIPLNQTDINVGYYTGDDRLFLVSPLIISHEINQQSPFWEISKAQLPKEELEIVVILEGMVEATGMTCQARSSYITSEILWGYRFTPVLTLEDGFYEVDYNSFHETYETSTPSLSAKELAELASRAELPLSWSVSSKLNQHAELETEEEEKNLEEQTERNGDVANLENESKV

SMILES	GIRK1/4 activity (in words) [2]	GIRK1/2 activity (in words) [7]	other results
CCO [ethanol]			Concentration known to activate GIRK [1]: hundreds of millimolar
O=C(Cc1ccccc1Cl)Nc1ccc(C(F)(F)F)cc1 [Compd 8h]	selective, partial GIRK1/4 activators		
Cc1cc(NC(=O)Nc2ccc(F)c(F)c2)n(-c2ccccc2)n1 [Compd 2]			CNS penetration (in words) [3]: centrally penetrant; Anti-epileptic properties (in words) ([3]; mice, via GIRK1/2 activation): established anti-epileptic properties in mice; Activity on other K+ channels (in words) [4]: inactive; Activity on GIRK2/3 (in words) [5]: inactive; Selectivity for GIRK1/2 vs GIRK1/4 [6]: ~ 10 fold
C[C@@H]1O[C@@H](O[C@H]2[C@H](Oc3cc(O)c4c(c3)O[C@H](c3ccc(O)cc3)CC4=O)O[C@H](CO)[C@@H](O)[C@@H]2O)[C@H](O)[C@H](O)[C@H]1O [naringin]			EC50 ([1]; read-out: GIRK activation EC50, reported value): > 100 µM
Cc1ccc(NC(=O)Cc2ccc(F)cc2)cc1S(=O)(=O)N(C)C [Compd 3d]	diminution in potency	diminution in potency	

Continued, in another order:

GIRK1/4 activity (in words) [2]	GIRK1/2 activity (in words) [7]	SMILES	other results
maintained potency and efficacy	diminished potency and lost efficacy	CN(C)S(=O)(=O)c1cccc(NC(=O)Cc2ccccc2Cl)c1 [Compd 3b]	
selective, partial GIRK1/4 activators		O=C(Cc1ccccc1Cl)Nc1cccc(Cl)c1 [Compd 8g]	
diminution in potency	diminution in potency	CN(C)S(=O)(=O)c1cccc(NC(=O)Cc2ccc(Cl)cc2)c1 [Compd 3c]	
